Test results from US5670500A (priority 1995, dated 1997).

Tests used:
topoisomerase II = details: cited from earlier work
Colon 26 = experiment: Efficacy in mouse tumor models: Colon Carcinoma 26; format: in vivo; details: Colon 26 mouse model
Method: (§1) The efficacy of the compounds of the present invention was also tested in vivo using three well-known mouse tumor models: L1210, Lewis Lung, and Colon Carcinoma 26.

topoisomerase I = molecular target: T1, topoisomerase I (Homo sapiens, UniProt P11387); details: cited from earlier work
T1 sequence (P11387 1-765): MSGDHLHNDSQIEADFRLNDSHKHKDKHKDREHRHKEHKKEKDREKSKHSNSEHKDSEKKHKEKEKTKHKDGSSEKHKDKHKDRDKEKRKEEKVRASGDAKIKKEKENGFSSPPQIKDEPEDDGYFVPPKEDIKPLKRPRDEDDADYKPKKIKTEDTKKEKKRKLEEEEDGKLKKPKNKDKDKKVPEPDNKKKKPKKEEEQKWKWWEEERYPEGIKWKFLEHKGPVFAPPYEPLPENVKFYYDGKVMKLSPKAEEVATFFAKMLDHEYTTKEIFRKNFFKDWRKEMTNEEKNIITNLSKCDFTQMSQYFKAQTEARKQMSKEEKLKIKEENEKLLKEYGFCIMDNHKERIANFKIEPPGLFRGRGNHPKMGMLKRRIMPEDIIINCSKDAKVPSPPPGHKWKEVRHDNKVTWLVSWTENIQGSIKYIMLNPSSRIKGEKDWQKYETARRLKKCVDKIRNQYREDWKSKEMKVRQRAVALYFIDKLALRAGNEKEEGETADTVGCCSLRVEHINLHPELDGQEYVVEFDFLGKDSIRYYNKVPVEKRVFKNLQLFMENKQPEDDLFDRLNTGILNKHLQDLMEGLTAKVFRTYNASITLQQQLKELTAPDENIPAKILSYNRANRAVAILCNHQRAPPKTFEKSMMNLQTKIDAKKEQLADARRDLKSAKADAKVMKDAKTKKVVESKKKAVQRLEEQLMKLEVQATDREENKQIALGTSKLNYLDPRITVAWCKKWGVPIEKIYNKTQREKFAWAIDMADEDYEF

[1] = in vivo; cited from earlier work
[2] = test system: multidrug resistant (CH^R C5) Chinese Hamster ovary cells; experiment: CHO Microtiter Cytotoxicity Assay, multidrug resistant; format: cell-based; details: Cricetulus griseus, CHRC5, 72 h, 3 days, XTT
Method: (§2) CHO Microtiter Cytotoxicity Assay
(§3) Chinese Hamster ovary cells are grown in Alpha MEM Medium with L-glutamine and nucleosides and containing 10% fetal bovine serum and 100 units per mL penicillin-streptomycin in 75 cm^2 canted neck tissue culture flasks. They are harvested from these flasks using 0.5% trypsin. Microtiter plates (96-well, sterile, flat bottom) (Corning 25860) are seeded with 1.6×10^3 wild-type (AUX-B1) Chinese Hamster ovary cells per well or 2×10^3 multidrug resistant (CH^R C5) Chinese Hamster ovary cells per well. The plates are incubated at 37° C., 5% CO2 overnight to allow the cells to attach. The outside wells of each plate are not used, due to evaporation during the incubation time. They are filled with medium and used as blanks. The next day, the medium is aspirated from the wells and 180 μL of fresh medium is added to each well. Compounds are diluted from stock solution in DMSO into fresh medium to a 10X concentration containing 2% DMSO. Twenty μL of this is then added to the 180 μL of fresh meduim in the wells. The plates are then incubated for another 3 days at 37° C., 5% CO2. […] The plate is then read on a UV Max plate reader, using wells without cells .(i.e., containing only 200 μL of medium and 50 μL of XTT/PMS solution) as a background control.

[3] = test system: wild-type (AUX-B1) Chinese Hamster ovary cells; experiment: CHO Microtiter Cytotoxicity Assay, wild type; format: cell-based; details: Cricetulus griseus, AuxB1, 72 h, 3 days, XTT
Method: as §2, §3

L1210 = experiment: Efficacy in mouse tumor models: L1210; format: in vivo; details: L1210 mouse model, dose 42 mg/kg ip
Method: as §1

Lewis Lung = experiment: Efficacy in mouse tumor models: Lewis Lung; format: in vivo; details: Lewis Lung mouse model, dose 9 mg/kg ip
Method: as §1

[4] = test system: solid tumor cancers, particularly ovarian cancer and non-small cell lung carcinoma; details: humans; cited from earlier work

Molecule	toxicity [1]	IC50 [2]	IC50 [3]	% Inc. in Lifespan, Colon 26 (Colon 26; dose 20 mg/kg sc)	other results
CC[C@@]1(O)C(=O)OCc2c1cc1n(c2=O)Cc2cc3ccccc3nc2-1 [Camptothecin]	unacceptable dose limiting toxicity, unpredictable toxicity	–	–	–	effect on topoisomerase II (topoisomerase II): no effect on topoisomerase II; % Inc. in Lifespan, Colon 26 (Colon 26; dose 4 mg/kg ip): 50%; inhibition of topoisomerase I (topoisomerase I): inhibit topoisomerase I
CC[C@@]1(O)C(=O)OCc2c1cc1n(c2=O)Cc2cc3c4c(ccc3nc2-1)OC(CN1CCOCC1)C4 (stereo partly drawn) [Formula III, (8S)-8-ethyl-1,2-dihydro-8-hydroxy-2(4-morpholinylmethyl)11H-furano [3,2-f]-pyrano[3',4':6,7]indolizino[1,2-b]quinoline-9,12(8H,14H)-dione]	–	420 nM	5.5 nM	45%	% Inc. in Lifespan, L1210 (L1210): 350%
CC[C@@]1(O)C(=O)OCc2c1cc1n(c2=O)Cc2cc3c4c(ccc3nc2-1)OC(CN(C)C)C4 (stereo partly drawn) [Formula IV, (8S)-2-[(dimethylamino)methyl]-8-ethyl-1,2-dihydro-8-hydroxy-11H-furano[3,2-f]-pyrano [3',4':6,7]indolizino[1,2-b]quinoline-9,12(8H,14H)-dione]	–	1000 nM	18 nM	32%	% Inc. in Lifespan, Lewis Lung (Lewis Lung): 67%
CC[C@@]1(O)C(=O)OCc2c1cc1n(c2=O)Cc2cc3c(CN(C)C)c(O)ccc3nc2-1 [Topotecan, 9-dimethylaminomethyl-10-hydroxycamptothecin, reference compound]	–	–	–	45%	efficacy in clinical tests [4]: demonstrated efficacy against several solid tumor cancers, particularly ovarian cancer and non-small cell lung carcinoma
(S)-10-amino-4-ethyl-4-hydroxy-1H-pyrano[3',4':6,7]indolizino [1,2-b]quinoline-3,14(4H,12H)-dione [CPT-11]	adverse toxicity profile	–	–	–	–
